These results are taken from PMC9007139 (Journal of medicinal chemistry, 2020).

A short description of data set [1]: In vivo pharmacokinetics, rat. Also on record: species or system Male Sprague-Dawley rats. Conditions: male, Sprague-Dawley, plasma, iv, 0.3 mg/kg.
Data set [2] can be described thus: In vivo pharmacokinetics, dog. The arrangement: species or system Male beagle dogs. The conditions noted are these: male, beagle, plasma, iv, 0.3 mg/kg.
Data set [3] is described as follows: in vitro. The conditions noted are these: rat, microsomes, pH 7.4.
Data set [4] in a line: Caco-2 permeability. The data set is classed as in vitro ADME.

The term clearance denotes a measure of how efficiently the substance is removed, as volume per time. The low end stands for inefficient removal, the high end for efficient removal. A word on the CLint scaled: it is the capacity of the preparation to metabolise the compound, expressed as a volume cleared per time.

For `CNC(=O)c1cn(C[C@H](F)CCc2ccc(NC(=O)Cc3cc(-c4cccc(OC(F)(F)F)c4)ccn3)nn2)nn1` [Compound 25], the clearance in data set [1] was 8 mL/min/kg; in data set [2], 2.9 mL/min/kg. In data set [3], this compound yielded a CLint scaled at 1 uM of 22 mL/min/kg.

With `CNC(=O)c1cn(C[C@H](F)CCc2ccc(NC(=O)Cc3cc(OC4CC(F)(F)C4)ccn3)nn2)nn1` [Compound 24], the clearance in data set [1] and in data set [2] was 3 mL/min/kg in each case.

As for `CNC(=O)c1cn(C[C@H](F)CCc2ccc(NC(=O)Cc3cc(C(F)(F)F)cc(C)n3)nn2)nn1` [Compound 26], the clearance in data set [1] stood at 1 mL/min/kg; in data set [2], 0.9 mL/min/kg.

For `CNC(=O)c1cn(C[C@H](F)CCc2ccc(NC(=O)Cc3cc(OC4CC(F)(F)C4)cc(C)n3)nn2)nn1` [Compound 27, (R)-1-(4-(6-(2-(4-(3,3-difluorocyclobutoxy)-6-methylpyridin-2-yl)acetamido)pyridazin-3-yl)-2-fluorobutyl)-N-methyl-1H-1,2,3-triazole-4-carboxamide], the “efflux in Caco-2 assay” value in data set [4] was “mild efflux”. For the same compound, the clearance in data set [1] was found to be 0.3 mL/min/kg; in data set [2], 0.6 mL/min/kg.
